Results: BindingDB's records for doi:10.1021/jm00210a006 (1979)
Values joined by “and” are separate entries in the source; they are usually repeats but may differ in a detail not shown here. Identical values can stand only once.

Experiments:
[1] = molecular target: Plasminogen (Homo sapiens, UniProt P00747); assay: Competitive inhibition of esterase activity of human plasmin assessed as assessed as decrease in p-nitrophenol production using N-Z-L-Tyr-ONp as substrate by spectrophotometric analysis
Chain of Plasminogen (P00747 97-580 limits assumed): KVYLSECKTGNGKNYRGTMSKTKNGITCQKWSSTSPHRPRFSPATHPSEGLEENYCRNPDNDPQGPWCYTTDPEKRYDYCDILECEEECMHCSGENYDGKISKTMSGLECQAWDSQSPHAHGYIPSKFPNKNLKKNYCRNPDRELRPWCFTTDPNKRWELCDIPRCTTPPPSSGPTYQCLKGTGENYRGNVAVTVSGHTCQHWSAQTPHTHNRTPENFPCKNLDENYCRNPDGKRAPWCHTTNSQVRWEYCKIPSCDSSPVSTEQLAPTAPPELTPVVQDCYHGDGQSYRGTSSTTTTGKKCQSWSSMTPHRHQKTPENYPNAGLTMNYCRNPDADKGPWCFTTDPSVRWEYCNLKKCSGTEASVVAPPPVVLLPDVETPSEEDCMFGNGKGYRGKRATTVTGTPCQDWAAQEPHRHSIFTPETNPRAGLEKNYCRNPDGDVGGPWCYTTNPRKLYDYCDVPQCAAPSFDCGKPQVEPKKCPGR
Chain of Plasminogen (P00747 581-810 limits assumed): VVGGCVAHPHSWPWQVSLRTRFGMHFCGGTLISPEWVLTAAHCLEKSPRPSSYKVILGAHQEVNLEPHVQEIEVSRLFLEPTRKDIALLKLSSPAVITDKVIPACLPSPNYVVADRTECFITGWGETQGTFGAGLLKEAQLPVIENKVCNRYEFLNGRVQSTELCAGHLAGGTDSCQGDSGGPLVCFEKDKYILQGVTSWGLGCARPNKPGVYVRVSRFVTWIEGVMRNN

[2] = molecular target: T1, Complement C1s subcomponent (Homo sapiens, UniProt P09871); assay: Competitive inhibition of esterase activity of human activated C1s subunit of first complement component assessed as decrease in p-nitrophenol production using N-Z-L-Tyr-ONp as substrate by spectrophotometric analysis
T1 sequence (P09871 whole entry): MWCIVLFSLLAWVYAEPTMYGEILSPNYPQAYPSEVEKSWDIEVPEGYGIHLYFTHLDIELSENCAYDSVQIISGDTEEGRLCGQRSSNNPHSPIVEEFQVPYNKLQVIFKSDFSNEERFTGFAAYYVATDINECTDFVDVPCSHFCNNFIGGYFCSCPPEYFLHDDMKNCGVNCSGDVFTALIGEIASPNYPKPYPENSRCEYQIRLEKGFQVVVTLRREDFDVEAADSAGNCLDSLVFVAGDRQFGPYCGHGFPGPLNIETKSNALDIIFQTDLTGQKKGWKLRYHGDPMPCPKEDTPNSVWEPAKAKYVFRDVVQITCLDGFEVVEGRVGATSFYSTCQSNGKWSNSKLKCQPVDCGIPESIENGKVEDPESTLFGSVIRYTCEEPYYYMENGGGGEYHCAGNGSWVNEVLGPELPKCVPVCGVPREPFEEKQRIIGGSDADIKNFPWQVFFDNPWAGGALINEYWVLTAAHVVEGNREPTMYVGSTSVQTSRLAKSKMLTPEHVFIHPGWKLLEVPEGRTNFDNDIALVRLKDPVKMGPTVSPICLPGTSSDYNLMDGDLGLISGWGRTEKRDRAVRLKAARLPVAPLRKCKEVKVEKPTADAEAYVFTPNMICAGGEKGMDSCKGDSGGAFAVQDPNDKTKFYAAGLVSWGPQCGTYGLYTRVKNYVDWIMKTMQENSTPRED

[3] = molecular target: T1, Complement C1s subcomponent; assay: Competitive inhibition of esterase activity of human activated C1s subunit of first complement component assessed as decrease in p-nitrophenol production using N-Z-L-Lys-ONp as substrate by spectrophotometric analysis

| Ki [2] | Structure (SMILES) | also measured |
| --- | --- | --- |
| 160 µM | COc1cccc(C(=N)N)c1 |  |
| 100 µM | N=C(N)c1cccc(Br)c1 |  |
| 630 µM and 250 µM and 79 µM | Cc1cc(C)cc(C(=N)N)c1 |  |

The remaining lines, values behind:

| Structure (SMILES) | Ki [2] | also measured |
| --- | --- | --- |
| N=C(N)c1cccc(Cc2ccccc2)c1 |  | Ki [1]: 630 µM |
| N=C(N)c1cccc(N)c1 |  | Ki [1]: 125 µM and 501 µM and 100 µM and 316 µM |
| Cc1ccc(C(=N)N)cc1C | 9990 µM and 1600 µM and 4000 µM and 6300 µM |  |
| N=C(N)c1ccc(CC(=O)C(=O)O)cc1 | 158 µM and 125 µM and 99.9 µM and 79.4 µM |  |
| N=C(N)c1cccc(OCCCOc2ccccc2)c1 | 12.5 µM and 15.8 µM and 20 µM and 10 µM |  |
| N=C(N)c1cccc(CC(=O)C(=O)O)c1 |  | Ki [3]: 2510 µM |
